Measured values: patent publication US20050096323A1, “Diketopiperazine derivatives to inhibit thrombin” (NovoScience Pharma Inc., priority 1999, published 2005)

Experiments:
[1] = molecular target: T1, thrombin (Homo sapiens, UniProt P00734); test: Thrombin inhibition constant (Ki), fluorogenic substrate assay; assay type: biochemical; details: Table II, method of example 9
T1 construct: purchased Sigma

[2] = molecular target: T2, urokinase (Homo sapiens, UniProt P00749); test: Urokinase inhibition constant (Ki), fluorogenic substrate assay; assay type: biochemical; details: substrate N-Cbz-Gly-Gly-Arg-AMC
T2 construct: purchased Sigma
Description: (§1) The activity and selectivity of the present invention can be identified by determination of the inhibition constant (Ki) for serine proteases such thrombin and trypsin and fibrinolytic enzymes such as urokinase, plasmin and tissue plasminogen activator (tPA). All of enzymes are purchased from Sigma. The general assay conditions are as follows. The fluorogenic substrates are dissolved in DMSO and diluted using assay buffer containing 50 mM Tris.HCl (pH 7.8 at 25° C.), 0.1 M NaCl and 0.1% polyethylene glycol 8000 (PEG 8000). […] The assays were conducted using Hitachi F2500 spectrophotometer under ambient temperature and at the excitation and emission wavelengths of 383 nm and 455 nm, respectively. The typical progressive data of the enzymatic assays are shown in FIGS. 1-3, and the determination of inhibition constant (Ki) is shown in FIG. 4.

[3] = molecular target: T3, plasmin (Homo sapiens, UniProt P00747); test: Plasmin inhibition constant (Ki), fluorogenic substrate assay; assay type: biochemical; details: substrate D-Ala-Leu-Lys-AMC
T3 construct: purchased Sigma
T3 sequence (P00747 581-810 limits assumed, species assumed): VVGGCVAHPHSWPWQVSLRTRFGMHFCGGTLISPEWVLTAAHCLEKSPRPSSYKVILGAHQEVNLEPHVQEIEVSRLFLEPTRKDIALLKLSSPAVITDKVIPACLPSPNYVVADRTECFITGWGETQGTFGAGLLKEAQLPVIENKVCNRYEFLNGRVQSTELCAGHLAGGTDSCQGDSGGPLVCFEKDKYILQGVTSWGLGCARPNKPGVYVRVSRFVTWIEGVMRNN
T3 sequence (P00747 97-580 partner limits assumed, species assumed): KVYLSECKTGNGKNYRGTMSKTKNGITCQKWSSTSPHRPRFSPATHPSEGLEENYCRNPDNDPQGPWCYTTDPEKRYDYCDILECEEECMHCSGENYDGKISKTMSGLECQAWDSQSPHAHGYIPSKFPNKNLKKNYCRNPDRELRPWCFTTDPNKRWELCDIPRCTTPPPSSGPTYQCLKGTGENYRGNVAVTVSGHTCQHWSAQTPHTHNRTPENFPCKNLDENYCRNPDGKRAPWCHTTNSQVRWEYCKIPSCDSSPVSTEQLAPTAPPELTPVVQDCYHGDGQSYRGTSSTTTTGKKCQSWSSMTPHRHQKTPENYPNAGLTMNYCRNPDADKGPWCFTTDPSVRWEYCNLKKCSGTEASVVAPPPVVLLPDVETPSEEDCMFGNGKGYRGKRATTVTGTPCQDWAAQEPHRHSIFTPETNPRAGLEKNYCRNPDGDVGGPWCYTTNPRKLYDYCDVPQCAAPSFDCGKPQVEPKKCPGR
Description: as §1

[4] = molecular target: T4, tissue plasminogen activator (tPA) (Homo sapiens, UniProt P00750); test: tPA inhibition constant (Ki), fluorogenic substrate assay; assay type: biochemical; details: substrate Boc-L-(p-F) FPR-ANSNH-C2H5
T4 construct: purchased Sigma
T4 sequence (P00750 36-562, species assumed): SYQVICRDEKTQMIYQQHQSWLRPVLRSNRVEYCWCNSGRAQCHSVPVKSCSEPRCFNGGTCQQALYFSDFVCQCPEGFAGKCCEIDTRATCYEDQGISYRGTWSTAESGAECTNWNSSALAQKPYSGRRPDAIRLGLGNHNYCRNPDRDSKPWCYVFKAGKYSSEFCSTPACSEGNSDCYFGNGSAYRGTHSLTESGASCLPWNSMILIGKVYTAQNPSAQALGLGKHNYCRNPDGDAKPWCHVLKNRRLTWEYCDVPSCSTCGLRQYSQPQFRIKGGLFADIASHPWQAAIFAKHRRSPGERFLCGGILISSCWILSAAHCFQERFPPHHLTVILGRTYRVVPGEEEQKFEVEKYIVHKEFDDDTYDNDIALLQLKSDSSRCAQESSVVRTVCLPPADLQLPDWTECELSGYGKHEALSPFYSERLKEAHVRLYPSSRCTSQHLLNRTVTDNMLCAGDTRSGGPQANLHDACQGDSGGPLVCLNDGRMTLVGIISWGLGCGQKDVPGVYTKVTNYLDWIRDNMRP
Description: as §1

[5] = tested on: ICR mice; test: Clotting time (CT) of mice whole blood after administration; assay type: in vivo
Description: Blood samples were collected using the capillary method 0.5 h and 1.5 h after i.v. injections and 1 h and 3 h after i.g. and clotting time of whole blood was measured.

[6] = tested on: SD rats; test: RT, TT, PT, APTT and FIB in rat plasma after administration; assay type: in vivo; parameters: FIB (Fibrillation) / RT (Clot Retraction Time) / TT (Thrombin Time): unit not given here; details: 2.5 mg/kg i.v.
Description: Blood was taken at 0.5 h and 1.5 h after i.v. injection and at 1 h and 3 h after i.g. and plasma RT,TT,PT,APTT and FIB were determined.

[7] = tested on: SD rats; test: Weight of deep vein thrombosis (inferior vena cava thrombi) in rats; assay type: in vivo, rat; details: 1.25 mg/kg i.v., 4 hours
Description: The drug was administered immediately after operation and, 4 hours later, the thrombi were collected and weighted.

[8] = tested on: SD rats; test: Acute myocardial infarction by coronary artery ligation in rats; assay type: in vivo, rat; details: for S point in electrocardiogram / T wave in electrocardiogram: reference drug 0.125 mg/kg i.v.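 On CK (u/ml): blood collected at end of 6 h (i.v.) or 8 h (intraduodenal) ECG observation.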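 On LDH (u/ml): blood collected at end of 6 h (i.v.) or 8 h (intraduodenal) ECG observation.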
Description: The drugs were administered 8 to 10 min after the coronary artery was ligated.

[9] = 0 min after ligation (before drug)
[10] = serum, reference drug, 0.125 mg/kg i.v.

With `CC1CNc2c(cccc2S(=O)(=O)N2C(=O)C3CC(c4ccccc4)CCN3C(=O)C2CCCNC(=N)N)C1` (stereo not shown) [compound 3] the Ki [1] was 0.91 µM.
Molecule `CC1CNc2c(cccc2S(=O)(=O)N2C(=O)C3CC(C(C)(C)C)CCN3C(=O)C2CCCNC(=N)N)C1` (stereo not shown) [compound 4] has a Ki [1] of 1.58 µM.
Work on `CCC1CCN2C(=O)C(CCCNC(=N)N)N(S(=O)(=O)c3cccc4c3NCC(C)C4)C(=O)C2C1` (stereo not shown) [compound 2] yielded a Ki [1] of 0.061 µM.
With `CC1CNc2c(cccc2S(=O)(=O)N[C@@H](CCCNC(=N)N)C(=O)N2CC[C@@H](C)C[C@@H]2C(=O)O)C1` (stereo partly shown) [Argatroban, reference compound] the Ki [2] was 999 µM, the Ki [3] was 372 µM and the Ki [4] was 777 µM. The “CT (clotting time of whole blood)” value ([5]; 2.5 mg/kg i.v. group, before administration) was 133.28 ± 26.21, the “CT (clotting time of whole blood)” value ([5]; 2.5 mg/kg i.v., 0.5 h) was 170.33 ± 28.34 and the “CT (clotting time of whole blood)” value ([5]; 2.5 mg/kg i.v., 1.5 h) was 156.11 ± 32.08. The “APTT (Activated Partial Prothromboplastin Time)” value ([6]; 0.5 h) was 37.9 ± 10.2, the “PT (Prothrombin Time)” value ([6]; 0.5 h) was 37.9 ± 8.6 and the “RT (Clot Retraction Time)” value ([6]; 0.5 h) was 91.2 ± 15.0. The “TT (Thrombin Time)” value ([6]; 0.5 h) was 72.9 ± 20.1, the “APTT (Activated Partial Prothromboplastin Time)” value ([6]; 1.5 h) was 30.1 ± 6.5 and the “FIB (Fibrillation)” value ([6]; 1.5 h) was 4.0 ± 0.9. For the same molecule, the “PT (Prothrombin Time)” value ([6]; 1.5 h) was 29.5 ± 8.5, the “RT (Clot Retraction Time)” value ([6]; 1.5 h) was 77.4 ± 10.6 and the “TT (Thrombin Time)” value ([6]; 1.5 h) was 50.4 ± 12.3. For the same molecule, the “Thrombi (mg) Dry weight” value [7] was 6.26 ± 3.72 mg, the “Thrombi (mg) Wet weight” value [7] was 18.04 ± 8.99 mg and the “S point in electrocardiogram” value [8, 9] was 0.35 ± 0.16. For the same molecule, the “T wave in electrocardiogram” value [8, 9] was 0.23 ± 0.16, the “S point in electrocardiogram” value ([8]; 10 min after ligation) was 0.36 ± 0.20 and the “T wave in electrocardiogram” value ([8]; 10 min after ligation) was 0.21 ± 0.18. For the same molecule, the “S point in electrocardiogram” value ([8]; 30 min after ligation) was 0.26 ± 0.15, the “T wave in electrocardiogram” value ([8]; 30 min after ligation) was 0.16 ± 0.18 and the “S point in electrocardiogram” value ([8]; 6 h after ligation) was 0.19 ± 0.10. For the same molecule, the “T wave in electrocardiogram” value ([8]; 6 h after ligation) was 0.11 ± 0.10, the “Infarction Area (%)” value ([8]; reference drug, 0.125 mg/kg i.v.) was 23.55 ± 7.95 % and the “CK (u/ml)” value [8, 10] was 55.92 ± 11.46 u/ml. For the same molecule, the “LDH (u/ml)” value [8, 10] was 6259.5 ± 308.6 u/ml.
